Measured values reported in paper PMC9628821, “Discovery of Chitin Deacetylase Inhibitors through Structure-Based Virtual Screening and Biological Assays” (Journal of Microbiology and Biotechnology, 2022).

Tests used:
[1] = target: T1, AnCDA (Aspergillus nidulans chitin deacetylase) (Aspergillus nidulans, UniProt Q5AQQ0); experiment: acetate release assay on (GlcNAc)[…] with purified AnCDA; Dixon plot Ki (abstract also gives IC50 […]); assay type: biochemical
T1 construct: gene cda; recombinant AnCDA (GenBank XM_677557.1), expressed in Pichia pastoris, His-tag purified
T1 sequence (Q5AQQ0 19-237): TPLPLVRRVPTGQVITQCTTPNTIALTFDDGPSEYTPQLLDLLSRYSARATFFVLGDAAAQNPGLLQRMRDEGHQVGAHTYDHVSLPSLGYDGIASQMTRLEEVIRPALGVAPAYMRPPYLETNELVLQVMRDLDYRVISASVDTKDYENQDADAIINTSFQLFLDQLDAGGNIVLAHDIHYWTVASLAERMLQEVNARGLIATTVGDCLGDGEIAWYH

[2] = substrate: CC(=O)N[C@H]1[C@H](O[C@H]2[C@H](O)[C@@H](NC(C)=O)[C@H](O[C@H]3[C@H](O)[C@@H](NC(C)=O)C(O)O[C@@H]3CO)O[C@@H]2CO)O[C@H](CO)[C@@H](O[C@@H]2O[C@H](CO)[C@@H](O[C@@H]3O[C@H](CO)[C@@H](O)[C@H](O)[C@H]3NC(C)=O)[C@H](O)[C@H]2NC(C)=O)[C@@H]1O; experiment: enzyme kinetics (Km) by acetate release assay; assay type: biochemical, Aspergillus nidulans; conditions: Co2+ ([…] CoCl2 in assay) active site

Molecule | Ki [1] [µM] | Km [2] [µM]
Cc1ccc(-c2nc(CNC(=O)c3cccnc3Cl)no2)cc1 [J075-4187] | 31.6 | 
AnCDA (Aspergillus nidulans chitin deacetylase) (Aspergillus nidulans FGSC A4) (protein, recombinant AnCDA (GenBank XM_677557.1), expressed in Pichia pastoris, His-tag purified) TPLPLVRRVPTGQVITQCTTPNTIALTFDDGPSEYTPQLLDLLSRYSARATFFVLGDAAAQNPGLLQRMRDEGHQVGAHTYDHVSLPSLGYDGIASQMTRLEEVIRPALGVAPAYMRPPYLETNELVLQVMRDLDYRVISASVDTKDYENQDADAIINTSFQLFLDQLDAGGNIVLAHDIHYWTVASLAERMLQEVNARGLIATTVGDCLGDGEIAWYH |  | 72
